Source: PMC4790425 (Journal of medicinal chemistry, 2015)
Positions count from the first letter of the chain named. Entries after “also recorded” stand apart in the source; their conditions may differ.

Experiments:
[1] = biological target: T1, CCK1R WT (Homo sapiens, UniProt P32238); assay: Competition binding with 125I-BDZ-1, CHO membranes; details: for α (cooperativity constant): 125I-BDZ-1 radioligand, allosteric ternary complex model
T1 sequence (P32238 1-428): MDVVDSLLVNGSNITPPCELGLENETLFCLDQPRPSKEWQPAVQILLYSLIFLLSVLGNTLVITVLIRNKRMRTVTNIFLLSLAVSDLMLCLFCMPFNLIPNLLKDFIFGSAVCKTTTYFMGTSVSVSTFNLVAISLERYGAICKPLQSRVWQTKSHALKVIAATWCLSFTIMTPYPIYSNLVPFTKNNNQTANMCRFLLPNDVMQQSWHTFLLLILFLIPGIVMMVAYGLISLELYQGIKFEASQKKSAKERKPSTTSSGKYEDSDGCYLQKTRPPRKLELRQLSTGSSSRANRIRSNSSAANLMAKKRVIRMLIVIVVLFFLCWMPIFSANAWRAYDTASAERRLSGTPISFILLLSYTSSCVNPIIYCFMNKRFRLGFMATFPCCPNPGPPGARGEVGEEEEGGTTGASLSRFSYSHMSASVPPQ

[2] = biological target: T2, rCCK1R-Ala317,321,325 (Rattus norvegicus, UniProt P30551, I332A/L340A/V336A); assay type: binding; details: non-dimerizing rat mutant
T2 sequence (P30551 1-444 I332A/V336A/L340A): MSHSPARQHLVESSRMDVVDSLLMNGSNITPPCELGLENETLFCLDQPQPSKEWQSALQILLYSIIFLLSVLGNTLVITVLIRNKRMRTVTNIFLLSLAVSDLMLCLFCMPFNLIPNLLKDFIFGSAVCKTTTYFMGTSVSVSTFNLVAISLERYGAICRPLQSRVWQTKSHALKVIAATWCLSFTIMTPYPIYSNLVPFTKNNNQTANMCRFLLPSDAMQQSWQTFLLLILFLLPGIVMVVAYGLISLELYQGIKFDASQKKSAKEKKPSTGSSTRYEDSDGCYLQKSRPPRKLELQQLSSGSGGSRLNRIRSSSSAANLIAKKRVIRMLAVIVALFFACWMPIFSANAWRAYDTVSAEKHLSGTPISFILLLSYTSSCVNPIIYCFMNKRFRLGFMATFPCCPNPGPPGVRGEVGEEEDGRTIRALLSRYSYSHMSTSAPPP

[3] = biological target: T3, wild type rat CCK1R (Rattus norvegicus, UniProt P30551); assay: Competition binding with 125I-BDZ-1, receptor expressed in COS cells
T3 sequence (P30551 1-444): T2 sequence (P30551 1-444 I332A/V336A/L340A) with A332I, A336V, A340L

[4] = biological target: T4, CCK2R WT (Homo sapiens, UniProt P32239); assay: Competition binding with 125I-BDZ-2, CHO membranes; details: 125I-BDZ-2 radioligand; allosteric ternary complex model
T4 sequence (P32239 1-447): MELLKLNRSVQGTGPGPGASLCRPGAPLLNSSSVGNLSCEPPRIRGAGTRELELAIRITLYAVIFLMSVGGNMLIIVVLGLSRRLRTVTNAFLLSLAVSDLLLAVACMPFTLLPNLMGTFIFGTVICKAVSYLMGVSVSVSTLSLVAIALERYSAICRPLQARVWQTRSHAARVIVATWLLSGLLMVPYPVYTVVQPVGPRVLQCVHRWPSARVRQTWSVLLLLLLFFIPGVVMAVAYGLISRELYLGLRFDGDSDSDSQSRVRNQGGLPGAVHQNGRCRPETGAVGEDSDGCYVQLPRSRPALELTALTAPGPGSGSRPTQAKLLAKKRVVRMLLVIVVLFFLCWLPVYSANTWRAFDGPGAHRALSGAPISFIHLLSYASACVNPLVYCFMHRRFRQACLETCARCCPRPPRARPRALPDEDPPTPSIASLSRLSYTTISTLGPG

[5] = biological target: T1, CCK1R WT; details: compared with CCK at the CCK1R
[6] = biological target: T4, CCK2R WT; assay: Intracellular calcium response, CHO-CCK2R cells; assay type: cell-based
[7] = biological target: T4, CCK2R WT; assay: Competition binding with 125I-CCK, CHO membranes; details: for α (cooperativity constant): 125I-CCK radioligand, allosteric ternary complex model; for inhibition of saturable 125I-CCK binding: maximal inhibition at CCK2R
[8] = biological target: T1, CCK1R WT; assay: Competition binding with 125I-CCK, CHO membranes; details: 125I-CCK radioligand; allosteric ternary complex model

| α (cooperativity constant) [4] | α (cooperativity constant) [1] | α (cooperativity constant) [7] | inhibition of saturable 125I-CCK binding [7] | α (cooperativity constant) [8] | SMILES | pKi, BDZ-1 binding affinity ([1]; wild type human CCK1R) | pKi, BDZ-1 binding affinity [2] | pKi, BDZ-1 binding affinity [3] | maximal intracellular calcium response [5] | biological (agonist) response at the CCK2R [6] |
| --- | --- | --- | --- | --- | --- | --- | --- | --- | --- | --- |
| – | – | – | – | – | CN1C(=O)[C@@H](NC(=O)Nc2cccc(I)c2)N=C(c2ccccc2)c2ccccc21 [BDZ-1, (S)-1-(3-iodophenyl)-3-(1-methyl-2-oxo-5-phenyl-2,3-dihydro-1H-enzo[e][1,4]diazepin-3-yl)urea] | 8.38 ± 0.16 | 9.66 ± 0.09 | 9.55 ± 0.25 | – | – |
| 0.47 ± 0.06 | 0.54 ± 0.06 | 0.32 ± 0.01 | approximately 60% | ~0.00 | CC(C)N(Cc1ccccc1)C(=O)CN1C(=O)[C@@H](Cc2c[nH]c3ccccc23)c2nnc(-c3ccccc3)n2-c2ccccc21 [CE-326597, N-benzyl-2-[(4S)-4-(1H-indol-3-ylmethyl)-5-oxo-1-phenyl-4,5-dihydro-6H-[1,2,4]triazolo[4,3-a][1,5]benzodiazepin-6-yl]-N-isopropylacetamide] | – | – | – | not statistically different from those elicited by CCK | weak partial agonist; also recorded: very weak partial agonist |
| 0.60 ± 0.04 | 0.65 ± 0.08 | 0.32 ± 0.07 | approximately 60% | ~0.0 | Cc1cc(C)cc(C[C@H]2CCCCN2C(=O)CN2C(=O)[C@@H](Cc3n[nH]c4ccccc34)c3nnc(-c4ccccc4)n3-c3ccccc32)c1 [PF-04756956, (4S)-6-{2-[(2R)-2-(3,5-dimethylbenzyl)piperidin-1-yl]-2-oxoethyl}-4-(1H-indazol-3-ylmethyl)-1-phenyl-4H-[1,2,4]triazolo[4,3-a][1,5]benzodiazepin-5(6H)-one] | – | – | – | not statistically different from those elicited by CCK | no agonist activity at all; also recorded: no biological response |
